From PubChem BioAssay (NCI)
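GI50 = concentration required for 50% inhibition of growth. Definition used: TGI = concentration required for complete inhibition of growth.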

Columns and labels:
Assay in all cases: DTP human tumour cell line panel, 384-well format
[1] = tested on: EKVX NSCLC
[2] = tested on: SN12C renal
[3] = tested on: RXF 393 renal
[4] = tested on: NCI-H226 lung
[5] = tested on: SF-295 CNS
[6] = tested on: COLO 205 colon
[7] = tested on: 786-0 renal
[8] = tested on: RPMI-8226 leukemia
[9] = tested on: MOLT-4 leukemia
[10] = tested on: SF-268 CNS
[11] = tested on: HOP-62 NSCLC
[12] = tested on: MALME-3M melanoma
[13] = tested on: HOP-92 NSCLC
[14] = tested on: T-47D breast
[15] = tested on: KM12 colon
[16] = tested on: UO-31 renal
[17] = tested on: SNB-75 CNS
[18] = tested on: SK-OV-3 ovarian
[19] = tested on: CCRF-CEM leukemia
[20] = tested on: SF-539 CNS
[21] = tested on: NCI-H460 NSCLC
[22] = tested on: HS 578T breast
[23] = tested on: IGROV1 ovarian
[24] = tested on: K-562 leukemia
[25] = tested on: NCI-H322M lung
[26] = tested on: ACHN renal
[27] = tested on: SK-MEL-28 melanoma
[28] = tested on: OVCAR-4 ovarian
[29] = tested on: UACC-257 melanoma
[30] = tested on: OVCAR-3 ovarian
[31] = tested on: SW-620 colon
[32] = tested on: SR leukemia
[33] = tested on: NCI/ADR-RES ovarian
[34] = tested on: BT-549 breast
[35] = tested on: A498 renal
[36] = tested on: TK-10 renal
[37] = tested on: MDA-MB-231 breast
[38] = tested on: HCT-15 colon
[39] = tested on: HCC-2998 colon
[40] = tested on: NCI-H522 lung
[41] = tested on: MDA-MB-435 melanoma
[42] = tested on: MCF7 breast
[43] = tested on: DU-145 prostate
[44] = tested on: PC-3 prostate
[45] = tested on: A549 NSCLC
[46] = tested on: OVCAR-5 ovarian
[47] = tested on: MDA-MB-468 breast
[48] = tested on: M14 melanoma
[49] = tested on: LOX IMVI melanoma
[50] = tested on: OVCAR-8 ovarian
[51] = tested on: SNB-19 CNS
[52] = tested on: CAKI-1 renal
[53] = tested on: UACC-62 melanoma
[54] = tested on: HL-60(TB) leukemia
[55] = tested on: HT29 colon
[56] = tested on: NCI-H23 lung
[57] = tested on: SK-MEL-5 melanoma

Cc1cc2c(C(N)=O)cccc2n1-c1nc2c(c(NCc3ccccc3)n1)CCCN2
GI50 [1]: 162 nM | TGI [1]: 303 nM | GI50 [2]: 175 nM | TGI [2]: 315 nM | GI50 [3]: 78.5 nM | TGI [3]: 206 nM | GI50 [4]: 102 nM | TGI [4]: 220 nM | GI50 [5]: 154 nM | TGI [5]: 290 nM | GI50 [6]: 193 nM | TGI [6]: 339 nM | GI50 [7]: 173 nM | TGI [7]: 314 nM | GI50 [8]: 20.8 nM | TGI [8]: 41.5 nM | GI50 [9]: 150 nM | TGI [9]: 284 nM | GI50 [10]: 174 nM | TGI [10]: 313 nM | GI50 [11]: 167 nM | TGI [11]: 305 nM | GI50 [12]: 151 nM | TGI [12]: 284 nM | GI50 [13]: 154 nM | TGI [13]: 290 nM | GI50 [14]: 162 nM | TGI [14]: 299 nM | GI50 [15]: 168 nM | TGI [15]: 310 nM | GI50 [16]: 171 nM | TGI [16]: 318 nM | GI50 [17]: 194 nM | TGI [17]: 338 nM | GI50 [18]: 246 nM | TGI [18]: 497 nM | GI50 [19]: 162 nM | TGI [19]: 299 nM | GI50 [20]: 167 nM | TGI [20]: 305 nM | GI50 [21]: 177 nM | TGI [21]: 324 nM | GI50 [22]: 78.8 nM | TGI [22]: 204 nM | GI50 [23]: 168 nM | TGI [23]: 315 nM | GI50 [24]: 134 nM | TGI [24]: 269 nM | GI50 [25]: 200 nM | TGI [25]: 374 nM | GI50 [26]: 157 nM | TGI [26]: 397 nM | GI50 [27]: 177 nM | TGI [27]: 318 nM | GI50 [28]: 184 nM | TGI [28]: 325 nM | GI50 [29]: 173 nM | TGI [29]: 313 nM | GI50 [30]: 138 nM | TGI [30]: 270 nM | GI50 [31]: 176 nM | TGI [31]: 316 nM | GI50 [32]: 115 nM | TGI [32]: 238 nM | GI50 [33]: 182 nM | TGI [33]: 323 nM | GI50 [34]: 193 nM | TGI [34]: 342 nM | GI50 [35]: 162 nM | TGI [35]: 303 nM | GI50 [36]: 179 nM | TGI [36]: 362 nM | GI50 [37]: 181 nM | TGI [37]: 323 nM | GI50 [38]: 155 nM | TGI [38]: 295 nM | GI50 [39]: 166 nM | TGI [39]: 305 nM | GI50 [40]: 125 nM | TGI [40]: 252 nM | GI50 [41]: 178 nM | TGI [41]: 320 nM | GI50 [42]: 142 nM | TGI [42]: 343 nM | GI50 [43]: 195 nM | TGI [43]: 351 nM | GI50 [44]: 188 nM | TGI [44]: 331 nM | GI50 [45]: 182 nM | TGI [45]: 339 nM | GI50 [46]: 183 nM | TGI [46]: 326 nM | GI50 [47]: 223 nM | TGI [47]: 369 nM | GI50 [48]: 170 nM | TGI [48]: 309 nM | GI50 [49]: 101 nM | TGI [49]: 220 nM | GI50 [50]: 159 nM | TGI [50]: 296 nM | GI50 [51]: 191 nM | TGI [51]: 336 nM | GI50 [52]: 170 nM | TGI [52]: 317 nM | GI50 [53]: 129 nM | TGI [53]: 258 nM | GI50 [54]: 162 nM | TGI [54]: 300 nM | GI50 [55]: 168 nM | TGI [55]: 310 nM | GI50 [56]: 134 nM | TGI [56]: 263 nM | GI50 [57]: 34.9 nM | TGI [57]: 106 nM
